# Test results: patent US20240132431A1, “METHOD FOR ALKYLATING ACIDIC FUNCTIONAL GROUP” (Chugai Seiyaku Kabushiki Kaisha, priority 2021, published 2024)
# Biological target: T1, Bcl-2 protein (Recombinant Human Bcl-2 Protein) (Homo sapiens, UniProt P10415)
# T1 construct: purchased Novus NBP2-34889
# Experiment: Binding evaluation of mixture library compounds to Bcl-2 using AS-MS (affinity selection mass spectrometry)
# Settings: for ASMS ratio (%) n = 2: replicate n = 2; for ASMS ratio (%) n = 2 / ASMS ratio (%) n = 1: ASMS Ratio(%)=(A−C)/B×100; for ASMS ratio (%) n = 1: replicate n = 1
# Procedure, shortened: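 Bcl-2 binding is scored from LC/MS signal retained with protein through gel-filtration spin columns, normalised to unfiltered and protein-free controls. Incubation: 20 μM protein, […] per compound, 1 h, 23° C.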
# [1] = AS-MS, mixture of 1200 compounds, Bcl-2
# [2] = AS-MS on the mixture of 1200 library compounds
# T1 sequence (P10415 whole entry): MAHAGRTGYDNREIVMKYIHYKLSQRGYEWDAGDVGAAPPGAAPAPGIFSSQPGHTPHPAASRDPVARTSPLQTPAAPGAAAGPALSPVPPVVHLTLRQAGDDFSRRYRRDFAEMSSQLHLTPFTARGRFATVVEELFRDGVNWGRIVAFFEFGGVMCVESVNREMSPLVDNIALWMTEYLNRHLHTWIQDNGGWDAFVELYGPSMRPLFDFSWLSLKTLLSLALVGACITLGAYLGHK
molecule,measurement,setting,value
"CCOc1cccc(-c2cc(CN3CCN(c4ccc(C(=O)NS(=O)(=O)CCC(F)(F)F)cc4)CC3)cc(OC(C)C)c2)c1 [B2N057-01, 4-[4-[[3-(3-Ethoxyphenyl)-5-propan-2-yloxyphenyl]methyl]piperazin-1-yl]-N-(3,3,3-trifluoropropylsulfonyl)benzamide]",ASMS ratio (%),n = 1,0.0%
same,ASMS ratio (%),n = 2,−1.8%
"CCOc1cccc(C#Cc2ccccc2C(=O)N2CCN(c3ccc(C(=O)NS(=O)(=O)CC45CC6CC(CC(C6)C4)C5)nn3)CC2)c1 [B2A007-01, N-(1-Adamantylmethylsulfonyl)-6-[4-[2-[2-(3-ethoxyphenyl)ethynyl]benzoyl]piperazin-1-yl]pyridazine-3-carboxamide]",ASMS ratio (%) n = 2,"AS-MS, mixture library, Bcl-2",0.0%
"CCOc1cncc(-c2ccccc2CCC(=O)N2CCN(c3ccc(C(=O)NS(C)(=O)=O)nn3)CC2)c1 [B2I012-01, 6-[4-[3-[2-(5-Ethoxypyridin-3-yl)phenyl]propanoyl]piperazin-1-yl]-N-methylsulfonylpyridazine-3-carboxamide]",ASMS ratio (%) n = 1,"AS-MS, mixture library, Bcl-2",−4.0%
same,ASMS ratio (%) n = 2,"AS-MS, mixture library, Bcl-2",−0.2%
"CCOc1cccc(-c2ccccc2CCC(=O)N2CCN(c3ccc(C(=O)NCC(F)(F)F)cc3)CC2)c1 [B1K033-01, 4-[4-[3-[2-(3-Ethoxyphenyl)phenyl]propanoyl]piperazin-1-yl]-N-(2,2,2-trifluoroethyl)benzamide]",ASMS ratio (%) n = 1,[1],2.3%
same,ASMS ratio (%) n = 2,[1],−0.6%
"CCOc1cncc(-c2cc(C(=O)N3CCN(c4ccc(C(=O)NS(=O)(=O)c5ccc(NCCSc6ccccc6)c(C(F)(F)F)c5)cc4)CC3)cc(C(F)(F)F)c2)c1 [B2R040-01, 4-[4-[3-(5-Ethoxypyridin-3-yl)-5-(trifluoromethyl)benzoyl]piperazin-1-yl]-N-[4-(2-phenylsulfanylethylamino)-3-(trifluoromethyl)phenyl]sulfonylbenzamide]",ASMS ratio (%),n = 1,2.6%
same,ASMS ratio (%),n = 2,0.2%
"CCOc1cncc(-c2cc(CN3CCN(c4ccc(C(=O)N(CC)CC)nn4)CC3)cc(OC(F)(F)F)c2)c1 [B4J090-01, 6-[4-[[3-(5-Ethoxypyridin-3-yl)-5-(trifluoromethoxy)phenyl]methyl]piperazin-1-yl]-N,N-diethylpyridazine-3-carboxamide]",ASMS ratio (%) n = 1,"AS-MS, mixture library, Bcl-2",1.4%
same,ASMS ratio (%) n = 2,"AS-MS, mixture library, Bcl-2",−1.5%
"CCOc1cccc(-c2csc(C(=O)N3CCN(c4ccc(C(=O)NS(=O)(=O)CCC(F)(F)F)cc4)CC3)c2)c1 [B2N023-01, 4-[4-[4-(3-Ethoxyphenyl)thiophene-2-carbonyl]piperazin-1-yl]-N-(3,3,3-trifluoropropylsulfonyl)benzamide]",ASMS ratio (%),n = 1,0.0%
same,ASMS ratio (%),n = 2,0.0%
"CCOc1cncc(-c2ccccc2CCC(=O)N2CCN(c3ccc(C(=O)NS(=O)(=O)CCC(F)(F)F)cc3)CC2)c1 [B2N034-01, 4-[4-[3-[2-(5-Ethoxypyridin-3-yl)phenyl]propanoyl]piperazin-1-yl]-N-(3,3,3-trifluoropropylsulfonyl)benzamide]",ASMS ratio (%),n = 1,−0.2%
same,ASMS ratio (%),n = 2,1.0%
"CCOc1cncc(-c2ccc(CN3CCN(c4ccc(C(=O)NS(=O)(=O)CCC(F)(F)F)cc4)CC3)cc2C)c1 [B2N048-01, 4-[4-[[4-(5-Ethoxypyridin-3-yl)-3-methylphenyl]methyl]piperazin-1-yl]-N-(3,3,3-trifluoropropylsulfonyl)benzamide]",ASMS ratio (%),n = 1,0.0%
same,ASMS ratio (%),n = 2,−0.7%
"CCOc1cncc(-c2cc(CN3CCN(c4ccc(C(=O)NS(=O)(=O)CC56CC7CC(CC(C7)C5)C6)cc4)CC3)cc(OC(F)(F)F)c2)c1 [B2A064-01, N-(1-Adamantylmethylsulfonyl)-4-[4-[[3-(5-ethoxypyridin-3-yl)-5-(trifluoromethoxy)phenyl]methyl]piperazin-1-yl]benzamide]",ASMS ratio (%) n = 1,"AS-MS, mixture library, Bcl-2",0.0%
same,ASMS ratio (%) n = 2,"AS-MS, mixture library, Bcl-2",−0.3%
"CCOc1cncc(-c2cc(C(=O)N3CCN(c4ccc(C(=O)NS(=O)(=O)c5ccc(NCCSc6ccccc6)c([N+](=O)[O-])c5)nn4)CC3)cc(C(F)(F)F)c2)c1 [B2Q018-01, 6-[4-[3-(5-Ethoxypyridin-3-yl)-5-(trifluoromethyl)benzoyl]piperazin-1-yl]-N-[3-nitro-4-(2-phenylsulfanylethylamino)phenyl]sulfonylpyridazine-3-carboxamide]",ASMS ratio (%) n = 2,"AS-MS, mixture library, Bcl-2",0.0%
"CCOc1cccc(-c2ccc(CN3CCN(c4ccc(C(=O)N(C)CC56CC7CC(CC(C7)C5)C6)nn4)CC3)c(OC)c2)c1 [B3A079-01, N-(1-Adamantylmethyl)-6-[4-[[4-(3-ethoxyphenyl)-2-methoxyphenyl]methyl]piperazin-1-yl]-N-methylpyridazine-3-carboxamide]",ASMS ratio (%) n = 1,[2],−5.8%
same,ASMS ratio (%) n = 2,[2],5.4%
"CCOc1cccc(C#Cc2ccccc2C(=O)N2CCN(c3ccc(C(=O)NS(C)(=O)=O)nn3)CC2)c1 [B2I007-01, 6-[4-[2-[2-(3-Ethoxyphenyl)ethynyl]benzoyl]piperazin-1-yl]-N-methylsulfonylpyridazine-3-carboxamide]",ASMS ratio (%) n = 1,"AS-MS, mixture library, Bcl-2",−1.6%
same,ASMS ratio (%) n = 2,"AS-MS, mixture library, Bcl-2",−1.6%
"CCOc1cccc(-c2ccc(C(=O)N3CCN(c4ccc(C(=O)NCC(F)(F)F)nn4)CC3)cc2F)c1 [B1K005-01, 6-[4-[4-(3-Ethoxyphenyl)-3-fluorobenzoyl]piperazin-1-yl]-N-(2,2,2-trifluoroethyl)pyridazine-3-carboxamide]",ASMS ratio (%) n = 1,[1],−0.1%
same,ASMS ratio (%) n = 2,[1],0.6%
"CCOc1cncc(-c2cc(CN3CCN(c4ccc(C(=O)N(C)CC56CC7CC(CC(C7)C5)C6)nn4)CC3)cc(C(F)(F)F)c2)c1 [B3A088-01, N-(1-Adamantylmethyl)-6-[4-[[3-(5-ethoxypyridin-3-yl)-5-(trifluoromethyl)phenyl]methyl]piperazin-1-yl]-N-methylpyridazine-3-carboxamide]",ASMS ratio (%) n = 1,[2],2.5%
same,ASMS ratio (%) n = 2,[2],2.4%
"CCOc1cncc(-c2ccc(CN3CCN(c4ccc(C(=O)NS(C)(=O)=O)nn4)CC3)c(OC)c2)c1 [B2I080-01, 6-[4-[[4-(5-Ethoxypyridin-3-yl)-2-methoxyphenyl]methyl]piperazin-1-yl]-N-methylsulfonylpyridazine-3-carboxamide]",ASMS ratio (%),n = 1,0.0%
"CCOc1cccc(-c2csc(C(=O)N3CCN(c4ccc(C(=O)NS(=O)(=O)CC56CC7CC(CC(C7)C5)C6)nn4)CC3)c2)c1 [B2A001-01, N-(1-Adamantylmethylsulfonyl)-6-[4-[4-(3-ethoxyphenyl)thiophene-2-carbonyl]piperazin-1-yl]pyridazine-3-carboxamide]",ASMS ratio (%) n = 1,"AS-MS, mixture library, Bcl-2",0.0%
same,ASMS ratio (%) n = 2,"AS-MS, mixture library, Bcl-2",0.0%
CCOc1cccc(-c2ccc(CN3CCN(c4ccc(C(=O)NS(=O)(=O)C(C)(C)C)cc4)CC3)c(OC)c2)c1 [B2L053-01],ASMS ratio (%),n = 1,0.0%
same,ASMS ratio (%),n = 2,0.0%
"CCOc1cncc(C#Cc2ccccc2CN2CCN(c3ccc(C(=O)NS(=O)(=O)C(C)(C)C)cc3)CC2)c1 [B2L070-01, N-tert-Butylsulfonyl-4-[4-[[2-[2-(5-ethoxypyridin-3-yl)ethynyl]phenyl]methyl]piperazin-1-yl]benzamide]",ASMS ratio (%),n = 1,4.9%
same,ASMS ratio (%),n = 2,−4.2%
"CCOc1cccc(-c2ccc(C(C)N3CCN(c4ccc(C(=O)N(CC)CC)cc4)CC3)c(F)c2)c1 (stereo not drawn) [B4J099-01, 4-[4-[1-[4-(3-Ethoxyphenyl)-2-fluorophenyl]ethyl]piperazin-1-yl]-N,N-diethylbenzamide]",ASMS ratio (%) n = 2,"AS-MS, mixture library, Bcl-2",0.0%
"CCOc1cccc(-c2ccc(C(C)N3CCN(c4ccc(C(=O)N(C)CC56CC7CC(CC(C7)C5)C6)cc4)CC3)cc2)c1 (stereo not drawn) [B3A097-01, N-(1-Adamantylmethyl)-4-[4-[1-[4-(3-ethoxyphenyl)phenyl]ethyl]piperazin-1-yl]-N-methylbenzamide]",ASMS ratio (%) n = 1,[2],1.8%
same,ASMS ratio (%) n = 2,[2],−5.9%
"CCOc1cncc(-c2cc(CN3CCN(c4ccc(C(=O)NS(=O)(=O)CC56CC7CC(CC(C7)C5)C6)cc4)CC3)cc(OC(C)C)c2)c1 [B2A058-01, N-(1-Adamantylmethylsulfonyl)-4-[4-[[3-(5-ethoxypyridin-3-yl)-5-propan-2-yloxyphenyl]methyl]piperazin-1-yl]benzamide]",ASMS ratio (%) n = 1,"AS-MS, mixture library, Bcl-2",4.8%
same,ASMS ratio (%) n = 2,"AS-MS, mixture library, Bcl-2",−10.6%
"CCOc1cccc(C#Cc2cc(C(=O)N3CCN(c4ccc(C(=O)NCC(F)(F)F)nn4)CC3)cc(C(F)(F)F)c2)c1 [B1K019-01, 6-[4-[3-[2-(3-Ethoxyphenyl)ethynyl]-5-(trifluoromethyl)benzoyl]piperazin-1-yl]-N-(2,2,2-trifluoroethyl)pyridazine-3-carboxamide]",ASMS ratio (%) n = 1,[1],0.0%
same,ASMS ratio (%) n = 2,[1],0.0%
4-[4-[2-[2-(5-Ethoxypyridin-3-yl)ethynyl]benzoyl]piperazin-1-yl]-N-propylbenzamide [B1M098-01],ASMS ratio (%) n = 1,[2],0.9%
same,ASMS ratio (%) n = 2,[2],0.3%
"CCOc1cccc(C#Cc2cncc(C(=O)N3CCN(c4ccc(C(=O)NS(=O)(=O)c5ccc(NCCSc6ccccc6)c([N+](=O)[O-])c5)cc4)CC3)c2)c1 [B2Q031-01, 4-[4-[5-[2-(3-Ethoxyphenyl)ethynyl]pyridine-3-carbonyl]piperazin-1-yl]-N-[3-nitro-4-(2-phenylsulfanylethylamino)phenyl]sulfonylbenzamide]",ASMS ratio (%) n = 1,"AS-MS, mixture library, Bcl-2",6.6%
same,ASMS ratio (%) n = 2,"AS-MS, mixture library, Bcl-2",−4.1%
"4-[4-[[4-(3-Ethoxyphenyl)-2,6-dimethoxyphenyl]methyl]piperazin-1-yl]-N-propylbenzamide [B1M020-01]",ASMS ratio (%) n = 1,[1],0.0%
same,ASMS ratio (%) n = 2,[1],0.0%
